The values that follow come from US20050143382A1 (4SC AG, priority 2003, published 2005).

The structures appear in SMILES notation. Some results are limits rather than exact numbers.

What all share (format): biochemical
What all share (settings): recombinant human kinase, 1 μM ATP

In assay [1] the target is T1, VEGF-R2 (Homo sapiens, UniProt P35968).
T1 construct: made in house; host or cells: Sf9 insect cells (baculovirus)
Briefly: 33PanQinase protein kinase activity assay, VEGF-R2. As to the method: (§1) The effect of the farazanopyrazine derivatives was tested on recombinant, human protein kinases. All protein kinases were expressed in Sf9 insect cells as human recombinant GST-fusion proteins or as His-tagged proteins by means of the baculovirus expression system. Protein kinases were purified by affinity chromatography using either GSH-agarose or Ni-NTH-agarose. The purity and identity of each was checked by SDS-PAGE/silver staining and by western blot analysis with specific antibodies.
(§2) A proprietary protein kinase assay (^33 PanQinase® Activity Assay) was used for measuring the kinase activity. All kinase assays were performed in 96-well FlashPlates™ in a 50 μl reaction volume. The assay for all enzymes contained 60 mM HEPES-NaOH, pH 7.5, 3 mM MgCl2, 3 mM MnCl2, 3 μM Na-orthovanadate, 1.2 mM DTT, 50 μg/ml PEG20000 and 1 μM [γ-^33P]-ATP (approx. 5×10^5 cpm per well).
(§3) The reaction cocktails were incubated at 30° C. for 80 minutes. The reaction was stopped with 50 μl of 2% (v/v) H3PO4, plates were aspirated and washed two times with 200 μl of 0.9% (w/v) NaCl. Incorporation of 33Pi was determined with a microplate scintillation counter. All assays were performed with a BeckmanCoulter/Sagian robotic system.

Assay [2] addresses T2, Aurora B kinase (Homo sapiens, UniProt Q96GD4).
T2 construct: made in house; host or cells: Sf9 insect cells (baculovirus)
Briefly: 33PanQinase protein kinase activity assay, Aurora B. The protocol: as §1, §2, §3

For assay [3], the target named is T3, SRC kinase (Homo sapiens, UniProt P12931).
T3 construct: made in house; host or cells: Sf9 insect cells (baculovirus)
T3 sequence (P12931 whole entry): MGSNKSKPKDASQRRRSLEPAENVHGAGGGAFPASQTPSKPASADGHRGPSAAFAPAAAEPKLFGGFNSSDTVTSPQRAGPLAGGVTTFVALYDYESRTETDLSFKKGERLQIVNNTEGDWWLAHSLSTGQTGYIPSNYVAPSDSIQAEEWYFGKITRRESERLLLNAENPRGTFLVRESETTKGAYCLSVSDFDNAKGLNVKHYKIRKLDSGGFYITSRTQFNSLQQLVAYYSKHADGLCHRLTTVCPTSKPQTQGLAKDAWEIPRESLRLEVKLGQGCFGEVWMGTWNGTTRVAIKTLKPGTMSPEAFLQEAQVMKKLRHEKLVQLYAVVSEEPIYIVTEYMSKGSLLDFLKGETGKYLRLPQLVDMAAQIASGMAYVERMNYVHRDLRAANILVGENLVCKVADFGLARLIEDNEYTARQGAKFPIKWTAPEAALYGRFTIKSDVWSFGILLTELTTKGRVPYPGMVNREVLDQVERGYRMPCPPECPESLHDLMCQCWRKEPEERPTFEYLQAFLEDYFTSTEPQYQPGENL
Briefly: 33PanQinase protein kinase activity assay, SRC. The protocol:
as §1, §2, §3

The target of assay [4] is T4, IGF-1 R (Homo sapiens, UniProt P08069).
T4 construct: made in house; host or cells: Sf9 insect cells (baculovirus)
T4 sequence (P08069 31-1367): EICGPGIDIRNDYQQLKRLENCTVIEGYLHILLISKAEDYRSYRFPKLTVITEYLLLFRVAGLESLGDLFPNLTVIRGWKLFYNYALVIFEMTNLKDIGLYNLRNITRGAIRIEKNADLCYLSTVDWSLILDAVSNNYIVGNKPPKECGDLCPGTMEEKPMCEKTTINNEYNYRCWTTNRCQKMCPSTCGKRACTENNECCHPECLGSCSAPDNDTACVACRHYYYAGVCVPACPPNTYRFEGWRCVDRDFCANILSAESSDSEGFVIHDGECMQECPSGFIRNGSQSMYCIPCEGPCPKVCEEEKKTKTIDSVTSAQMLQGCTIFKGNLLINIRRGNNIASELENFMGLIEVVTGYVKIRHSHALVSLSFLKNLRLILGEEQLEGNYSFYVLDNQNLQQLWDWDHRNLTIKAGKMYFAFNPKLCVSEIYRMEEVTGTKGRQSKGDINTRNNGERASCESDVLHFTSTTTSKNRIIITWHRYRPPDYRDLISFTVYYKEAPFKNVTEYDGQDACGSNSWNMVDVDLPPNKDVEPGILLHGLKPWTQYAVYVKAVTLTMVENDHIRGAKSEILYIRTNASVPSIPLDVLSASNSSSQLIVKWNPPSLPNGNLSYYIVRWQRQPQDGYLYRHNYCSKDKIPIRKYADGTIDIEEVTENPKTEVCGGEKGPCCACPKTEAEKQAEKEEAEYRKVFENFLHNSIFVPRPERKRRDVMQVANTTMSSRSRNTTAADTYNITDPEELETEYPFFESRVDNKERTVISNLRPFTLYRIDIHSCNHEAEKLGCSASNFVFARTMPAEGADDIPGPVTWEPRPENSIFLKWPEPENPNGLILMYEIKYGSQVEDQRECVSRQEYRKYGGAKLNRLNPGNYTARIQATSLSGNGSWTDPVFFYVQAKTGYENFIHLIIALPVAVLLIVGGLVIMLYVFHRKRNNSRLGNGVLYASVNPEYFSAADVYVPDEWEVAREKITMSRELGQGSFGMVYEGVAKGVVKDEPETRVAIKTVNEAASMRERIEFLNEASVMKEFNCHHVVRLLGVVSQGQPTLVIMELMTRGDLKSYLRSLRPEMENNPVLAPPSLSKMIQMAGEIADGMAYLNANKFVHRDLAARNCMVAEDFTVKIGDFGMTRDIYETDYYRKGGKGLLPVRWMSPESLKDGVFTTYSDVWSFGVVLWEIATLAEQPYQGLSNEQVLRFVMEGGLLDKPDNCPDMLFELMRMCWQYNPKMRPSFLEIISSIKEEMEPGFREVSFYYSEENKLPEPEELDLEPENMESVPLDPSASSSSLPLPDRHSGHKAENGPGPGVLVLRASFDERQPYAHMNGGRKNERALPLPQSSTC
The assay is described as follows: 33PanQinase protein kinase activity assay, IGF-1 R. The protocol:
as §1, §2, §3

What is called IC50 is the concentration needed to halve the response being measured.

T2 sequence (Q96GD4 whole entry): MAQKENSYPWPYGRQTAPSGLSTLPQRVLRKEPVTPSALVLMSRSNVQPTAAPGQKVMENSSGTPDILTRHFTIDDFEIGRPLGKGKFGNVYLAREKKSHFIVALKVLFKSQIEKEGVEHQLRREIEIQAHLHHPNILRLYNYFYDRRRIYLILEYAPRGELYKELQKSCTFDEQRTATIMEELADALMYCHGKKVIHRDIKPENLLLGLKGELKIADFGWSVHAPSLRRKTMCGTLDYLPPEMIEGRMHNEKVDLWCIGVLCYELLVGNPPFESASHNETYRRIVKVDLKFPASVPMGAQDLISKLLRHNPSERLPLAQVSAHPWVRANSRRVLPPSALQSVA
T1 sequence (P35968 20-1356): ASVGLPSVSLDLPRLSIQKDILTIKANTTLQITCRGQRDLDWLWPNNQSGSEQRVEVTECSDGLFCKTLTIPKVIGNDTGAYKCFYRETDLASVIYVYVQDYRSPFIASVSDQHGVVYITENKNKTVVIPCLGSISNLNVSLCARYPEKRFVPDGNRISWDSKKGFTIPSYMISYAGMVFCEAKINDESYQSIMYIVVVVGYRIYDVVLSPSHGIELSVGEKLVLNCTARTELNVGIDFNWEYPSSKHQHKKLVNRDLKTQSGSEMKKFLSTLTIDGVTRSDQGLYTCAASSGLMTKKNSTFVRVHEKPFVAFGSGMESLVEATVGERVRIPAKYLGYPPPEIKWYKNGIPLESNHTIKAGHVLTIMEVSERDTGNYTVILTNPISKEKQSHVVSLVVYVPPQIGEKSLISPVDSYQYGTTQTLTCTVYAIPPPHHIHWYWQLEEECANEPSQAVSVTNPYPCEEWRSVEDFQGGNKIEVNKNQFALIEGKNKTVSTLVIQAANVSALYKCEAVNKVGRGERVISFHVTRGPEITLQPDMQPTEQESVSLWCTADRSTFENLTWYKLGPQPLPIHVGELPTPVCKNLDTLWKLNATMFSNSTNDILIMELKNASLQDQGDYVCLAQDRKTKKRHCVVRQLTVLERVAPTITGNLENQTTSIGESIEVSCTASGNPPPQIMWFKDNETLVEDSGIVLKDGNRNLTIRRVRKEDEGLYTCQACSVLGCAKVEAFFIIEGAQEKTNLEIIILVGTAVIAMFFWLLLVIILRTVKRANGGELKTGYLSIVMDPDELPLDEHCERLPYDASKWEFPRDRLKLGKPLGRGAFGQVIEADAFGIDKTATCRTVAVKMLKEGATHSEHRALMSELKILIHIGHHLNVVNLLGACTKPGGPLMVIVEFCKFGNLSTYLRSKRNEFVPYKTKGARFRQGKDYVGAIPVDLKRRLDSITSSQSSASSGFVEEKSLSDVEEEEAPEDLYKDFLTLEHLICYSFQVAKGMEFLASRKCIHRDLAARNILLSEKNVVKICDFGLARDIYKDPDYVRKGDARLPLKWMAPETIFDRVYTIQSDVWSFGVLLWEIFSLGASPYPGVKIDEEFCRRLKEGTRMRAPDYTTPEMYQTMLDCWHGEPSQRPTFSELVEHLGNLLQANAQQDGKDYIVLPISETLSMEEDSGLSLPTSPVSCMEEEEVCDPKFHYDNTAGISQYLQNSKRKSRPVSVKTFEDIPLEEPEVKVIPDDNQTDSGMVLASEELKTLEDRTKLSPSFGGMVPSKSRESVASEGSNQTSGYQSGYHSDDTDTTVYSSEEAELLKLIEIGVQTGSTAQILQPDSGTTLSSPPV

Regarding `COc1cc(C=NNc2nc3nonc3nc2Nc2ccccc2F)cc([N+](=O)[O-])c1O` [Example 7], the figures for the IC50 in assay [1], in assay [2] and in assay [3] were less than 2000 nM, less than 10000 nM and less than 1000 nM, respectively.
As to `O=C(O)c1cc(-c2ccc(C=NNc3nc4nonc4nc3Nc3ccccc3F)o2)ccc1O` [Example 23], the IC50 in assay [1] was less than 2000 nM; in assay [2], less than 10000 nM; in assay [4], less than 1000 nM; in assay [3], less than 1000 nM.
As to `COc1ccccc1Nc1nc2nonc2nc1NN=Cc1cc(I)cc(I)c1O` [Example 47], the IC50 in assay [2] was less than 10000 nM.
For `O=C(O)c1cc(-c2ccc(C=NNc3nc4nonc4nc3Nc3ccc(Br)cc3)o2)ccc1Cl` [Example 52], the 50% inhibitory concentration (IC50) in assay [1] is less than 2000 nM; in assay [2] it was less than 10000 nM; in assay [4] it was less than 1000 nM; in assay [3] it was less than 1000 nM.
Take `Oc1ccc(C=NNc2nc3nonc3nc2Nc2ccccc2)c(O)c1` [Example 81]: the IC50 in assay [2] is less than 10000 nM.
Still for that read-out and setting: with `O=C(O)c1cccc(-c2ccc(C=NNc3nc4nonc4nc3Nc3ccccc3)o2)c1` [Example 89] the figure was less than 10000 nM.
Turning to `O=C1Nc2ccccc2C1=NNc1nc2nonc2nc1Nc1ccccc1` [Example 95, 3-[(6-Phenylamino-[1,2,5]oxadiazolo [3,4-b]pyrazin-5-yl)-hydrazono]-1,3-dihydro-indol-2-one], the values for the IC50 in assay [2] and in assay [4] were less than 10000 nM and less than 1000 nM, respectively.
`O=C(O)c1cccc(-c2ccc(C=NNc3nc4nonc4nc3NCc3ccccc3)o2)c1` [Example 111]: in assay [2], the IC50 is less than 10000 nM.
Same read-out and setting: with `O=C(O)c1ccc(-c2ccc(C=NNc3nc4nonc4nc3NCc3ccccc3)o2)cc1` [Example 117] the figure was less than 10000 nM; with `Oc1ccc(C=NNc2nc3nonc3nc2Nc2ccc(F)cc2)c(O)c1` [Example 126], less than 10000 nM.
Still for that read-out and setting: the same measure for `Oc1ccc(C=NNc2nc3nonc3nc2Nc2cccc(Cl)c2)c(O)c1` [Example 147]: less than 10000 nM.
For `O=C(O)c1cccc(-c2ccc(C=NNc3nc4nonc4nc3Nc3cccc(Cl)c3)o2)c1` [Example 154], the IC50 in assay [1] is less than 2000 nM; in assay [2], less than 10000 nM; in assay [4] it was less than 1000 nM; in assay [3], less than 1000 nM.
Regarding `Oc1ccc(C=NNc2nc3nonc3nc2Nc2ccc(F)c(Cl)c2)c(O)c1` [Example 165], the IC50 in assay [1] was less than 2000 nM; in assay [2], less than 10000 nM.
Regarding `O=C(O)c1cccc(-c2ccc(C=NNc3nc4nonc4nc3Nc3ccc(F)c(Cl)c3)o2)c1` [Example 173], the IC50 was less than 10000 nM in assay [2], less than 1000 nM in assay [4] and less than 1000 nM in assay [3].
Turning to `O=C(O)c1cc(-c2ccc(C=NNc3nc4nonc4nc3Nc3ccc(F)c(Cl)c3)o2)ccc1Cl` [Example 176], the IC50 in assay [1] was less than 2000 nM; in assay [2] it was less than 10000 nM; in assay [4], less than 1000 nM; in assay [3], less than 1000 nM.
`O=S(=O)(O)c1ccc(C=NNc2nc3nonc3nc2Nc2ccc(F)c(Cl)c2)o1` [Example 181]: in assay [2], the IC50 is less than 10000 nM.
Same read-out and setting: the same measure for `Oc1ccc(C=NNc2nc3nonc3nc2Nc2ccc(Cl)c(Cl)c2)c(O)c1` [Example 189]: less than 10000 nM.
For the molecule `Clc1ccc(Nc2nc3nonc3nc2NN=Cc2cc3ccccc3o2)cc1Cl` [Example 193, [6-(N′-Benzofuran-2-ylmethylene-hydrazino)-[1,2,5]oxadiazolo[3,4-b]pyrazin-5-yl]-(3,4-dichloro-phenyl)-amine], the IC50 was less than 2000 nM in assay [1], less than 1000 nM in assay [4] and less than 1000 nM in assay [3].
Consider `O=C(O)c1cccc(-c2ccc(C=NNc3nc4nonc4nc3Nc3ccc(Cl)c(Cl)c3)o2)c1` [Example 194], for which the IC50 was less than 2000 nM in assay [1], less than 10000 nM in assay [2], less than 1000 nM in assay [4] and less than 1000 nM in assay [3].
As to `O=C(O)c1cc(-c2ccc(C=NNc3nc4nonc4nc3Nc3ccc(Cl)c(Cl)c3)o2)ccc1Cl` [Example 196], the IC50 is less than 2000 nM in assay [1], less than 10000 nM in assay [2], less than 1000 nM in assay [4] and less than 1000 nM in assay [3].
As to `NC(=O)c1cccc(-c2ccc(C=NNc3nc4nonc4nc3Nc3ccc(Cl)c(Cl)c3)o2)c1` [Example 198], the IC50 in assay [1] is less than 2000 nM; in assay [4], less than 1000 nM; in assay [3] it was less than 1000 nM.
Turning to `O=C(O)c1ccc(-c2ccc(C=NNc3nc4nonc4nc3Nc3ccc(Cl)c(Cl)c3)o2)cc1` [Example 199], the IC50 in assay [1] was less than 2000 nM; in assay [2] it was less than 10000 nM; in assay [4] it was less than 1000 nM; in assay [3], less than 1000 nM.
`Clc1ccc(-c2ccc(C=NNc3nc4nonc4nc3Nc3ccc(Cl)c(Cl)c3)o2)cc1` [Example 200, (6-{N-[5-(4-Chloro-phenyl)-furan-2-ylmethylene]-hydrazino}-[1,2,5]-oxadiazolo[3,4-b]pyrazin-5-yl)-(3,4-dichloro-phenyl)-amine]: the figures for the IC50 in assay [1], in assay [4] and in assay [3] were less than 2000 nM, less than 1000 nM and less than 1000 nM, respectively.
Consider `O=C1Nc2ccccc2C1=NNc1nc2nonc2nc1Nc1ccc(Cl)c(Cl)c1` [Example 201, 3-{[6-(3,4-Dichloro-phenylamino)-[1,2,5]oxadiazolo [3,4-b]pyrazin-5-yl]-hydrazono}-1,3-dihydro-indol-2-one], for which the IC50 is less than 2000 nM in assay [1], less than 1000 nM in assay [4] and less than 1000 nM in assay [3].
